In ChEMBL document CHEMBL3046093, “Effect of doses of fungicides and plant resistance activators on the control of Rhizoctonia foliar blight of soybean, and on Rhizoctonia solani AG1-IA in vitro development” (Crop Prot, 2006):
In brackets after ≈: the same amount, converted by molar mass. Activity calls are given as the source filed them. The rule behind the calls is not given here.

Assays:
Rhizoctonia solani [1] = experiment: Antifungal activity against Rhizoctonia solani AG-1 IA assessed as inhibition of mycelial growth at < 10 mg/l relative to control; format: functional, organism-based
Glycine max [2] = experiment: Induction of systemic acquired resistance in Glycine max (soybean) plant infected with Rhizoctonia solani AG-1 IA assessed as reduction in disease severity at 25 mg a.i/l applied as spray on day 5 prior to inoculation measured after 10 days relative to control; format: functional, organism-based
Glycine max [3] = experiment: Induction of systemic acquired resistance in Glycine max (soybean) plant infected with Rhizoctonia solani AG-1 IA assessed as reduction in disease severity at 12.5 mg a.i/l applied as spray on day 10 prior to inoculation measured after 10 days relative to control; format: functional; parameters: scale not given: the % may be the effect or the level left
Glycine max [4] = experiment: Induction of systemic acquired resistance in Glycine max (soybean) plant infected with Rhizoctonia solani AG-1 IA assessed as reduction in disease severity at 12.5 mg a.i/l applied as spray on day 10 prior to inoculation measured after 5 days relative to control; format: functional; parameters: scale not given: the % may be the effect or the level left
Rhizoctonia solani [5] = experiment: Antifungal activity against Rhizoctonia solani AG-1 IA assessed as reduction of mycelial growth at 100 mg/l relative to control; format: functional; parameters: scale not given: the % may be the effect or the level left
Rhizoctonia solani [6] = experiment: Antifungal activity against Rhizoctonia solani AG-1 IA assessed as reduction of mycelial growth at 10 mg/l relative to control; format: functional; parameters: scale not given: the % may be the effect or the level left
Rhizoctonia solani [7] = experiment: Antifungal activity against Rhizoctonia solani AG-1 IA assessed as mycelial growth at 1 mg/l (reference value: 40 mm); format: functional
Rhizoctonia solani [8] = experiment: Antifungal activity against Rhizoctonia solani AG-1 IA assessed as mycelial growth at 0.1 mg/l (reference value: 40 mm); format: functional
Rhizoctonia solani [9] = experiment: Curative effect against Rhizoctonia solani AG-1 IA infected soybean plant at 50 g a.i/ha applied as spray at V5 to V6 growth stage post inoculation measured after 5 to 10 days under greenhouse condition relative to control; format: functional, organism-based
Rhizoctonia solani [10] = experiment: Protective effect against Rhizoctonia solani AG-1 IA infected soybean plant at 50 g a.i/ha applied as spray at V5 to V6 growth stage prior to inoculation measured after 5 to 10 days under greenhouse condition relative to control; format: functional, organism-based
Rhizoctonia solani [11] = experiment: Fungicidal activity against Rhizoctonia solani AG-1 IA assessed as inhibition of mycelial radial growth; format: functional, organism-based
Rhizoctonia solani [12] = experiment: Fungicidal activity against Rhizoctonia solani AG-1 IA assessed as mycelial radial growth at 100 mg/l (reference value: 40 mm); format: functional
Rhizoctonia solani [13] = experiment: Fungicidal activity against Rhizoctonia solani AG-1 IA assessed as mycelial radial growth at 1 mg/l (reference value: 40 mm); format: functional
Rhizoctonia solani [14] = experiment: Fungicidal activity against Rhizoctonia solani AG-1 IA assessed as mycelial radial growth at 10 mg/l (reference value: 40 mm); format: functional
Rhizoctonia solani [15] = experiment: Fungicidal activity against Rhizoctonia solani AG-1 IA assessed as mycelial radial growth at 0.1 mg/l (reference value: 40 mm); format: functional
Rhizoctonia solani [16] = experiment: Protective effect against Rhizoctonia solani AG-1 IA infected soybean plant at 750 g a.i/ha applied as spray at V5 to V6 growth stage prior to inoculation measured after 5 to 10 days under greenhouse condition relative to control; format: functional, organism-based
Rhizoctonia solani [17] = experiment: Curative effect against Rhizoctonia solani AG-1 IA infected soybean plant at 100 g a.i/ha applied as spray at V5 to V6 growth stage post inoculation measured after 5 to 10 days under greenhouse condition relative to control; format: functional, organism-based
Rhizoctonia solani [18] = experiment: Protective effect against Rhizoctonia solani AG-1 IA infected soybean plant at 100 g a.i/ha applied as spray at V5 to V6 growth stage prior to inoculation measured after 5 to 10 days under greenhouse condition relative to control; format: functional, organism-based
Glycine max [19] = experiment: Phytotoxicity in Glycine max (soybean) plant assessed as dwarfing at 200 g a.i/ha; format: organism-based; conditions: in vivo
Glycine max [20] = experiment: Phytotoxicity in Glycine max (soybean) plant assessed as leaf burning at 200 g a.i/ha; format: organism-based; conditions: in vivo
[21] = Rhizoctonia solani, AG-1 IA, read-out: EC50

Compound: CSC(=O)c1cccc2nnsc12 [ACIBENZOLAR-S-METHYL]
- inhibition (Rhizoctonia solani [1]): inactive
- Activity (Glycine max [2]): Active
- Activity (Glycine max [3]): 36%
- Activity (Glycine max [4]): 28.5%
- Activity (Rhizoctonia solani [5]): 55.2%
- Activity (Rhizoctonia solani [6]): 19%
- Activity (Rhizoctonia solani [7]): 40 mm
- Activity (Rhizoctonia solani [8]): 40 mm

Compound: CO/C=C(/C(=O)OC)c1ccccc1Oc1cc(Oc2ccccc2C#N)ncn1 [AZOXYSTROBIN]
- Activity (Rhizoctonia solani [9]): Active
- Activity (Rhizoctonia solani [10]): Active
- EC90 (Rhizoctonia solani [11]; Rhizoctonia solani, AG-1 IA): 33.1 µg/mL (≈ 82 µM)
- EC50 (Rhizoctonia solani [11]; [21]): 0.668 µg/mL (≈ 1.66 µM)
- Activity (Rhizoctonia solani [12]): 10.3 mm
- Activity (Rhizoctonia solani [13]): 16 mm
- Activity (Rhizoctonia solani [14]): 13.1 mm
- Activity (Rhizoctonia solani [15]): 15.2 mm

Compound: CCCCNC(=O)n1c(NC(=O)OC)nc2ccccc21 [BENOMYL]
- EC90 (Rhizoctonia solani [11]; Rhizoctonia solani, AG-1 IA): 17.4 µg/mL (≈ 60 µM)
- EC50 (Rhizoctonia solani [11]; [21]): 0.352 µg/mL (≈ 1.21 µM)
- Activity (Rhizoctonia solani [12]): 0 mm
- Activity (Rhizoctonia solani [13]): 9.6 mm
- Activity (Rhizoctonia solani [14]): 0 mm
- Activity (Rhizoctonia solani [15]): 38.8 mm

Compound: Clc1ccc(C2(Cn3cncn3)CC(Br)CO2)c(Cl)c1 (configuration not stated) [BROMUCONAZOLE]
- EC90 (Rhizoctonia solani [11]; Rhizoctonia solani, AG-1 IA): 4.81 µg/mL (≈ 12.8 µM)
- EC50 (Rhizoctonia solani [11]; [21]): 0.097 µg/mL (≈ 0.257 µM)
- Activity (Rhizoctonia solani [12]): 0.7 mm
- Activity (Rhizoctonia solani [13]): 8.2 mm
- Activity (Rhizoctonia solani [14]): 3.6 mm
- Activity (Rhizoctonia solani [15]): 17.9 mm

Compound: COC(=O)Nc1nc2ccccc2[nH]1 [CARBENDAZIM]
- EC90 (Rhizoctonia solani [11]; Rhizoctonia solani, AG-1 IA): 8.41 µg/mL (≈ 44 µM)
- EC50 (Rhizoctonia solani [11]; [21]): 0.17 µg/mL (≈ 0.889 µM)
- Activity (Rhizoctonia solani [12]): 0 mm
- Activity (Rhizoctonia solani [13]): 1.5 mm
- Activity (Rhizoctonia solani [14]): 0 mm
- Activity (Rhizoctonia solani [15]): 39 mm

Compound: N#Cc1c(Cl)c(Cl)c(Cl)c(C#N)c1Cl [CHLOROTHALONIL]
- EC90 (Rhizoctonia solani [11]; Rhizoctonia solani, AG-1 IA): 49.4 µg/mL (≈ 186 µM)
- EC50 (Rhizoctonia solani [11]; [21]): 0.998 µg/mL (≈ 3.75 µM)
- Activity (Rhizoctonia solani [12]): 4.7 mm
- Activity (Rhizoctonia solani [13]): 19.3 mm
- Activity (Rhizoctonia solani [14]): 7.6 mm
- Activity (Rhizoctonia solani [15]): 30 mm

Compound: CC1COC(Cn2cncn2)(c2ccc(Oc3ccc(Cl)cc3)cc2Cl)O1 (configuration not stated) [DIFENOCONAZOLE]
- EC90 (Rhizoctonia solani [11]; Rhizoctonia solani, AG-1 IA): 1.13 µg/mL (≈ 2.78 µM)
- EC50 (Rhizoctonia solani [11]; [21]): 0.023 µg/mL (≈ 0.0566 µM)
- Activity (Rhizoctonia solani [12]): 1.5 mm
- Activity (Rhizoctonia solani [13]): 5 mm
- Activity (Rhizoctonia solani [14]): 2.7 mm
- Activity (Rhizoctonia solani [15]): 6.6 mm

Compound: O=[N+]([O-])c1cc(C(F)(F)F)c(Cl)c([N+](=O)[O-])c1Nc1ncc(C(F)(F)F)cc1Cl [FLUAZINAM]
- Activity (Rhizoctonia solani [16]): Active
- EC90 (Rhizoctonia solani [11]; Rhizoctonia solani, AG-1 IA): 2.27 µg/mL (≈ 4.89 µM)
- EC50 (Rhizoctonia solani [11]; [21]): 0.046 µg/mL (≈ 0.0989 µM)
- Activity (Rhizoctonia solani [12]): 3.4 mm
- Activity (Rhizoctonia solani [13]): 5.1 mm
- Activity (Rhizoctonia solani [14]): 4.3 mm
- Activity (Rhizoctonia solani [15]): 9.1 mm

Compound: N#Cc1c[nH]cc1-c1cccc2c1OC(F)(F)O2 [FLUDIOXONIL]
- EC90 (Rhizoctonia solani [11]; Rhizoctonia solani, AG-1 IA): 0.161 µg/mL (≈ 0.649 µM)
- EC50 (Rhizoctonia solani [11]; [21]): 0.003 µg/mL (≈ 0.0121 µM)
- Activity (Rhizoctonia solani [12]): 0 mm
- Activity (Rhizoctonia solani [13]): 0 mm
- Activity (Rhizoctonia solani [14]): 0 mm
- Activity (Rhizoctonia solani [15]): 7.1 mm

Compound: CC(C)NC(=O)N1CC(=O)N(c2cc(Cl)cc(Cl)c2)C1=O [IPRODIONE]
- EC90 (Rhizoctonia solani [11]; Rhizoctonia solani, AG-1 IA): 11.8 µg/mL (≈ 35.6 µM)
- EC50 (Rhizoctonia solani [11]; [21]): 0.237 µg/mL (≈ 0.718 µM)
- Activity (Rhizoctonia solani [12]): 0 mm
- Activity (Rhizoctonia solani [13]): 5.5 mm
- Activity (Rhizoctonia solani [14]): 0 mm
- Activity (Rhizoctonia solani [15]): 39 mm

Compound: CO/N=C(/C(=O)OC)c1ccccc1COc1ccccc1C [KRESOXIM-METHYL]
- EC90 (Rhizoctonia solani [11]; Rhizoctonia solani, AG-1 IA): 490 µg/mL (≈ 1560 µM)
- EC50 (Rhizoctonia solani [11]; [21]): 9.9 µg/mL (≈ 31.6 µM)
- Activity (Rhizoctonia solani [12]): 22 mm
- Activity (Rhizoctonia solani [13]): 26.9 mm
- Activity (Rhizoctonia solani [14]): 25.1 mm
- Activity (Rhizoctonia solani [15]): 26 mm

Compound: CC12CC1(C)C(=O)N(c1cc(Cl)cc(Cl)c1)C2=O (configuration not stated) [PROCYMIDONE]
- Activity (Rhizoctonia solani [12]): 0.6 mm
- Activity (Rhizoctonia solani [13]): 17.6 mm
- Activity (Rhizoctonia solani [14]): 1.2 mm
- Activity (Rhizoctonia solani [15]): 37.2 mm

Compound: COC(=O)N(OC)c1ccccc1COc1ccn(-c2ccc(Cl)cc2)n1 [PYRACLOSTROBIN]
- Activity (Rhizoctonia solani [17]): Active
- Activity (Rhizoctonia solani [18]): Active
- EC90 (Rhizoctonia solani [11]; Rhizoctonia solani, AG-1 IA): 4.67 µg/mL (≈ 12.1 µM)
- EC50 (Rhizoctonia solani [11]; [21]): 0.094 µg/mL (≈ 0.242 µM)
- Activity (Rhizoctonia solani [12]): 0 mm
- Activity (Rhizoctonia solani [13]): 8.1 mm
- Activity (Rhizoctonia solani [14]): 5.4 mm
- Activity (Rhizoctonia solani [15]): 17.8 mm

Compound: O=C(O)c1ccccc1O [SALICYLIC ACID]
- inhibition (Rhizoctonia solani [1]): inactive
- Activity (Rhizoctonia solani [7]): 40 mm
- Activity (Rhizoctonia solani [8]): 40 mm

Compound: CC(C)(C)C(O)(CCc1ccc(Cl)cc1)Cn1cncn1 (configuration not stated) [TEBUCONAZOLE]
- Activity (Glycine max [19]): Toxic
- Activity (Glycine max [20]): Toxic
- EC90 (Rhizoctonia solani [11]; Rhizoctonia solani, AG-1 IA): 2.42 µg/mL (≈ 7.85 µM)
- EC50 (Rhizoctonia solani [11]; [21]): 0.049 µg/mL (≈ 0.159 µM)
- Activity (Rhizoctonia solani [12]): 0 mm
- Activity (Rhizoctonia solani [13]): 7.6 mm
- Activity (Rhizoctonia solani [14]): 3.3 mm
- Activity (Rhizoctonia solani [15]): 13.5 mm

Compound: c1ccc2[nH]c(-c3cscn3)nc2c1 [THIABENDAZOLE]
- EC90 (Rhizoctonia solani [11]; Rhizoctonia solani, AG-1 IA): 10.9 µg/mL (≈ 54.2 µM)
- EC50 (Rhizoctonia solani [11]; [21]): 0.22 µg/mL (≈ 1.09 µM)
- Activity (Rhizoctonia solani [12]): 0 mm
- Activity (Rhizoctonia solani [13]): 7.3 mm
- Activity (Rhizoctonia solani [14]): 0 mm
- Activity (Rhizoctonia solani [15]): 36.1 mm

Compound: COC(=O)NC(=S)Nc1ccccc1NC(=S)NC(=O)OC [THIOPHANATE METHYL]
- EC90 (Rhizoctonia solani [11]; Rhizoctonia solani, AG-1 IA): 537 µg/mL (≈ 1570 µM)
- EC50 (Rhizoctonia solani [11]; [21]): 10.8 µg/mL (≈ 31.7 µM)
- Activity (Rhizoctonia solani [12]): 0.4 mm
- Activity (Rhizoctonia solani [13]): 36.7 mm
- Activity (Rhizoctonia solani [14]): 20.8 mm
- Activity (Rhizoctonia solani [15]): 39.6 mm

Compound: TRIPHENYLSTANNANOL [listing 1 of 2 here]
- EC50 (Rhizoctonia solani [11]): 0.112 µg/mL

Compound: TRIPHENYLSTANNANOL [listing 2 of 2 here]
- EC90 (Rhizoctonia solani [11]): 5.55 µg/mL
- Activity (Rhizoctonia solani [12]): 1 mm
- Activity (Rhizoctonia solani [13]): 10.6 mm
- Activity (Rhizoctonia solani [14]): 6.4 mm
- Activity (Rhizoctonia solani [15]): 14.1 mm
